One data set relates to Lung. Description: Barcoded pooled LNP biodistribution screen, fold above input (FAI). The format is in vivo. The conditions noted are these: pooled LNP IV tail vein, mice, 4 hours post-dose. Here is the method: (§1) Male and female mice aged approximately 8-12 weeks were used for studies described by the present Example. Each mouse was temporarily restrained and pooled LNP was administered IV via tail vein injection in up to five animals per experiment. Age-matched mice was also used to administer vehicle (1×TBS) via tail vein injection in up to three animals per experiment. Additional routes of administration can also be conducted including intracerebral ventricular (ICV), intracisterna manga (ICM), intrathecal (IT), intramuscular (IM), nebulization, intranasal (IN), subcutaneous (SC), intraarticular, and intradermal (ID). At 4 hours post-dose, tissues including liver, spleen, bone marrow, testes, gastrocnemius, quadricep, lung, heart, kidney, and pancreas may be collected for analysis.
(§2) Liver, kidney, lung, and muscle (e.g. skeletal and cardiac) tissues may be mechanically, and then enzymatically digested using a mixture of proteinases, then passed through a 70 μm filter to generate single cell suspensions. Spleen tissues were mechanically digested to generate single cell suspensions. Tissues were treated with ACK buffer to lyse red blood cells, and then stained with fluorescently-labeled antibodies for flow cytometry and fluorescence-activated cell sorting (FACS). Commercially available antibodies were used in the present example. Using a BD FACSMelody (Becton Dickinson), samples were acquired via flow cytometry to generate gates prior to sorting. In general, the gating structure was size→singlet cells→live cells→cells of interest. T cells were defined as CD45+CD3+, monocytes are defined as CD45+CD11b+, and B cells are defined as CD45+CD19+. Endothelial cells were defined as CD31+, monocytes and Kupffer cells as CD45+CD11b+ and hepatocytes and myocytes were defined as CD31−/CD45− in the liver and muscle, respectively. Tissues from vehicle-dosed mice were used to set the gates for sorting.
(§3) RNA from tissues were extracted using the Reliaprep RNA extraction kit, and libraries were prepared using the RNAseq kit, and sequenced on either a MiSeq or NextSeq500.
(§4) To screen for preferential LNP delivery to a target tissues, the relative abundance of each barcode in one or more target tissues was measured and compared to the relative abundance of each barcode to its corresponding relative input abundance to determine fold above input (FAI) for each barcode. If the FAI of a barcode in a target tissue is above a threshold or above the FAI of a different LNP in the same tissue, the LNP can be identified as preferentially delivering to the target tissue.
(§5) The FAI is the normalized relative abundance of a barcode in a selected sample as compared to its frequency in the input. The FAI of a barcode indicates how a LNP's abundance changes relative to the rest of the LNP pool. The FAI value of the barcode was calculated by normalizing the relative abundance in the barcode sequence counts in the isolated samples to its relative abundance in the administration input. […] The FAI then indicates the performance of an LNP relative to the input LNP composition.

For the next data set, the system named is Spleen. The description is as above. It counts as in vivo. The conditions noted are these: pooled LNP IV tail vein, mice, 4 hours post-dose. On the procedure:
as §1, §2, §3, §4, §5

A further data set has as its system Liver. Described as above. It counts as in vivo. The conditions noted are these: Table 4 screening experiment; pooled LNP IV tail vein, mice, 4 hours post-dose. On the procedure: as §1, §2, §3, §4, §5
The nature of data set [1]: LNP encapsulation efficiency, unlysed vs lysed LNPs, Qubit kit (Example 1 LNPs). It counts as physicochemical. To be noted: LNPs prepared according to Example 1; total lipid to NA mass ratio 11.7. On the procedure: Concentration of NA was determined by Qubit microRNA kit (for siRNA) or HS RNA kit (for mRNA) per manufacturer's instructions. Encapsulation efficiency was determined by measuring nucleic acid concentration in unlysed and lysed LNPs. Encapsulation efficiency was determined by measuring unlysed and lysed LNPs.

For the next data set, the system named is human ALAS1 target site. Description: In vivo base editing with LNP carrying adenine base editor mRNA and sgRNA, targeted deep sequencing. To be noted: 3.0 mg/kg dose IV; NBSGW mice engrafted with human CD34+ cells; four to six days post-dose. On the procedure:
Exemplary LNP preparations were selected to determine each preparation's ability to perform base editing in a NBSGW mouse model as described herein.
Lipid nanoparticle components were dissolved in 100% ethanol at specified lipid component molar ratios. mRNA encoding an adenine base editor and a chemically-modified sgRNA were dissolved at a mass ratio of 1:1 in 10 mM citrate, pH 3.0, resulting in a concentration of NA cargo of approximately 0.2 mg/mL.
LNP preparations were formulated with molar ratios of 50% Ionizable Lipid: 38.5% Cholesterol: 1.5% PEG2000-DMG: 10% DSPC total lipid to NA mass ratio of 19 to 1.
LNP preparations were formed by microfluidic mixing of the lipid and NA solutions using a Precision Nanosystems NanoAssemblr Spark series Instruments, according to the manufacturer's protocol.
A 3:1 ratio of aqueous to organic solvent was maintained during mixing using differential flow rates. […] After this initial dialysis, each individual LNP preparation was characterized via dynamic light scattering (DLS) to measure size and polydispersity. pKa of a subpopulation of LNP preparations was measured via TNS assay. […]
Age-matched mice were also used to administer vehicle (1×PBS) via tail vein injection as a control. […] Base editing was determined by performing targeted deep sequencing analysis at the human ALAS1 target site using extracted genomic DNA. […]

Data set [2] is described as follows: LNP hydrodynamic diameter and polydispersity by DLS (Example 1 LNPs). To be noted: LNPs prepared according to Example 1, total lipid to NA mass ratio 11.7. It counts as physicochemical. Here is the method: LNPs were prepared with a total lipid to NA mass ratio of 11.7. LNPs were formed by microfluidic mixing of the lipid and NA solutions using a Precision Nanosystems NanoAssemblr Spark or Benchtop series Instruments, according to the manufacturers protocol. A ratio of aqueous to organic solvent of approximately 2:1 or 3:1 was maintained during mixing using differential flow rates. After mixing, LNPs were collected, diluted in PBS (approximately 1:1 v/v). Further buffer exchange was conducted using dialysis in PBS at 4° C. for 4 to 24 hours against a 20 kDa filter. After this initial dialysis, each individual LNP preparation was characterized via dynamic light scattering (DLS) to measure the size (e.g., diameter) and polydispersity. In addition, pKa of a subpopulation of LNPs was measured via a 2-(p-toluidino)-6-napthalene sulfonic acid (TNS) assay. LNPs falling within specific diameter and polydispersity ranges are pooled, and further dialyzed against phosphate buffer saline (PBS) at 4° C. for 1 to 4 hours against a 100 kDa dialysis cassette. After the second dialysis, LNPs were sterile filtered using […] filter and stored at 4° C. for further use.
DLS-LNP hydrodynamic diameter and polydispersity index (PDI) were measured using high throughput dynamic light scattering (DLS) (DynaPro plate reader II, Wyatt). LNPs were diluted 1×PBS to an appropriate concentration and analyzed.
Lipid nanoparticle components were dissolved in 100% ethanol at specified lipid component molar ratios. Nucleic acid (NA) cargo was dissolved in 10 mM citrate, 100 mM NaCl, pH 4.0, resulting in a concentration of NA cargo of approximately 0.22 mg/mL. In some embodiments, NA cargos included both a functional NA and a reporter DNA barcode mixed at mass ratios of 1:10 to 10:1 functional NA to barcode. LNPs were formulated with a total lipid to NA mass ratio of 11.7. LNPs were formed by microfluidic mixing of the lipid and NA solutions using a Precision Nanosystems NanoAssemblr Spark or Benchtop series Instruments, according to the manufacturer's protocol. A 2:1 or 3:1 ratio of aqueous to organic solvent was maintained during mixing using differential flow rates. After mixing, LNPs were collected, diluted in PBS (approximately 1:1 v/v), and further buffer exchange was conducted using dialysis in PBS at 4° C. for 8 to 24 hours against a 20 kDa filter. After this initial dialysis, each individual LNP formulation was characterized via DLS to measure the size and polydispersity, and the pKa of a subpopulation of LNPs is measured via TNS assay. After dialysis, LNPs were sterile filtered using 0.22 micron sterile filter and stored at 4° C. for further use.
LNP hydrodynamic diameter and polydispersity index (PDI) were measured using high throughput dynamic light scattering (DLS) (DynaPro plate reader II, Wyatt). LNPs were diluted 1×PBS to an appropriate concentration and analyzed.

As for `CCCCC/C=C\C/C=C\CCCCCCCCC(CCCCCCCC/C=C\C/C=C\CCCCC)OC(=O)CCCN(C)C` [MC3, (6Z,9Z,28Z,31Z)-heptatriaconta-6,9,28,31-tetraen-19-yl 4-(dimethylamino) butanoate], the “FAI (Lung)” value in the data set on Lung (Table 4 screening experiment) is given as 1.13; with Lung (Table 5 screening experiment) it was 0.50. The “FAI (Spleen)” value with Spleen (Table 4 screening experiment) was 1.94; with Spleen (Table 5 screening experiment), 0.39. In addition, the “FAI (Liver)” value in the data set on Liver came to 0.86.
For `CC/C=C\CCCCOC(CCC(=O)OCCCCCCCN(CCO)CCCN(CCCCCCCOC(=O)CCC(OCCCC/C=C\CC)OCCCC/C=C\CC)CCCCCCCOC(=O)CCC(OCCCC/C=C\CC)OCCCC/C=C\CC)OCCCC/C=C\CC` [Example 7-2], the “Mean Encapsulation Efficiency” value in data set [1] worked out at 96.8%. The “base editing in bulk bone marrow” value with human ALAS1 target site came to 2.2%. In addition, in data set [2], the “Mean Diameter” value is reported as 96.1 nm and the “Mean PDI” value was found to be 10.9%.
